Results as given in patent US10583137B2, “Triazole DAGLα inhibitors” (THE SCRIPPS RESEARCH INSTITUTE, priority 2015, dated 2020).
Read-outs that look alike come from different tables or passages of the source.

What was measured:
[1] = molecular target: cannabinoid CB1 (CB1R) receptor (Homo sapiens (Human), UniProt P21554); test: radioligand binding assay
Method: (§1) Data represent average values±SEM; n=3 per group. […] Compounds 14 and 17 had minimal and negligible binding, respectively, to cannabinoid CB1 (CB1R) and CB2 (CB2R) receptors as measured with a radioligand binding assay (IC50 values>1 μM) (data not shown).

[2] = molecular target: cannabinoid CB2 (CB2R) receptor (Homo sapiens (Human), UniProt P34972); test: radioligand binding assay
cannabinoid CB2 (CB2R) receptor, sequence (P34972 whole entry): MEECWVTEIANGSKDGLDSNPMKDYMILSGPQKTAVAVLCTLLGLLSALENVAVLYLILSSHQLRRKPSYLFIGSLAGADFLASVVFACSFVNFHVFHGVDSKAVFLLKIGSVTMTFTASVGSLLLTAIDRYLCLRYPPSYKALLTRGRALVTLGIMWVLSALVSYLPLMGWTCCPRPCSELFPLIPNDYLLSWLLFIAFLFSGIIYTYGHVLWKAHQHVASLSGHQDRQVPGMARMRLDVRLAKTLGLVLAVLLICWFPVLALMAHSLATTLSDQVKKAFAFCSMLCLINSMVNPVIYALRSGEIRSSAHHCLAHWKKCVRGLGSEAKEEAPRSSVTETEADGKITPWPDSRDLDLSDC
Method: as §1

DAGLα (hDAGLα-FLAG) = DAGLα (hDAGLα-FLAG) (Homo sapiens (Human), UniProt Q9Y4D2); test: competitive ABPP, membrane proteome of transfected HEK293T cells; format: biochemical; conditions: read-out: DAGLα IC50
DAGLα (hDAGLα-FLAG), sequence (Q9Y4D2 whole entry): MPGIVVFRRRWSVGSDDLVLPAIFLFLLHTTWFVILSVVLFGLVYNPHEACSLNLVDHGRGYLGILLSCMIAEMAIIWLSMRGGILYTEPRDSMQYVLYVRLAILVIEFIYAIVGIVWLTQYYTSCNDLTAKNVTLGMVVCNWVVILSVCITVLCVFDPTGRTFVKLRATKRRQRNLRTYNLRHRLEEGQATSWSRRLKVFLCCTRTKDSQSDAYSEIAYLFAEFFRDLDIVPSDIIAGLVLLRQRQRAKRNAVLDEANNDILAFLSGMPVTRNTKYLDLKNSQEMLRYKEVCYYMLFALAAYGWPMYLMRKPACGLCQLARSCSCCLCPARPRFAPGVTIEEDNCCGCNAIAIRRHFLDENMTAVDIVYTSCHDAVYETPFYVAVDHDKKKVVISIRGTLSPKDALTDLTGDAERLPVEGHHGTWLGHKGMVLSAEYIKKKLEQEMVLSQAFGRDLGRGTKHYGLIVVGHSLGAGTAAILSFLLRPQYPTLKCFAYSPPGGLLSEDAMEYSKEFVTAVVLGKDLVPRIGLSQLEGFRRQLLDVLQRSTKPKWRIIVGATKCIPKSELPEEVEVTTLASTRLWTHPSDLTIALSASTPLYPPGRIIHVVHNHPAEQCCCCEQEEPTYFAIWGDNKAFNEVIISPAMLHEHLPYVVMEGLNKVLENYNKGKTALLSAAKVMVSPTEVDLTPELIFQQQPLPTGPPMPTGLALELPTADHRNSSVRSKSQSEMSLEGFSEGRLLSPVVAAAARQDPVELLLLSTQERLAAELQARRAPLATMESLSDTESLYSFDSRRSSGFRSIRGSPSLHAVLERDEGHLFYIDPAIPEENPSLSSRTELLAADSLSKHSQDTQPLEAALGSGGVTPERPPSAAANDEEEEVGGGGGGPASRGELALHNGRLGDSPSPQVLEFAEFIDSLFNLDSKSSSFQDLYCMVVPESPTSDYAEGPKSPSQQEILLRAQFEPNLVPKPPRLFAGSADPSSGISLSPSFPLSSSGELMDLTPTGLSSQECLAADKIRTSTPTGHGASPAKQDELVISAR
Summary of the method: (§2)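 HEK293T membrane proteome (1 mg/ml) expressing FLAG-tagged human DAGLα or DAGLβ, treated 30 min at room temperature with compound, then 30 min with HT-01 or FP-Rh probe (1 μM). Bands separated by SDS-PAGE were normalized to DMSO for IC50 by variable-slope fit.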

DAGLβ (hDAGLβ-FLAG) = DAGLβ (hDAGLβ-FLAG) (Homo sapiens (Human), UniProt Q8NCG7); test: as above; format: biochemical; conditions: read-out: DAGLβ IC50
DAGLβ (hDAGLβ-FLAG), sequence (Q8NCG7 whole entry): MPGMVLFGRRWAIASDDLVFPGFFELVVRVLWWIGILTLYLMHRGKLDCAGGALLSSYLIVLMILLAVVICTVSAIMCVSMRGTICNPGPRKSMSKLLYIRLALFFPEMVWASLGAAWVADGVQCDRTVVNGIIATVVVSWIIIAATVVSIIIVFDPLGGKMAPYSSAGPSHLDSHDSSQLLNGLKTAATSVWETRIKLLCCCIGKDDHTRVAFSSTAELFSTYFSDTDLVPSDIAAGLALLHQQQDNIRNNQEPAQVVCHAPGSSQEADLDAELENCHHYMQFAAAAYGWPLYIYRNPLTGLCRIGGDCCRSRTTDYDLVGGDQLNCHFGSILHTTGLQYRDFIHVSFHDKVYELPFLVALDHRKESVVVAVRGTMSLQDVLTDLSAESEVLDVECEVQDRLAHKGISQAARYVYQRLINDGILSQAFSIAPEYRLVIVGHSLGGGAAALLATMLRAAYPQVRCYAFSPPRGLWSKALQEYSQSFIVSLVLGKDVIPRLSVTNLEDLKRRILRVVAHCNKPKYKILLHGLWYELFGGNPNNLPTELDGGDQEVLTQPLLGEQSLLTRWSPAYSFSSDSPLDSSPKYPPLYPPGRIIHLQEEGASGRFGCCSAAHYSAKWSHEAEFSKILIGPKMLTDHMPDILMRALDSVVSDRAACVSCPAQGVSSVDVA
Summary of the method: as §2

DAGLα = DAGLα (Mus musculus (Mouse), UniProt Q6WQJ1); test: in vivo inhibition, brain tissue analyzed by ABPP; conditions: male C57BL/6 mice, intraperitoneal, 4 hr; for ED50: mouse, ip
DAGLα, sequence (Q6WQJ1 whole entry): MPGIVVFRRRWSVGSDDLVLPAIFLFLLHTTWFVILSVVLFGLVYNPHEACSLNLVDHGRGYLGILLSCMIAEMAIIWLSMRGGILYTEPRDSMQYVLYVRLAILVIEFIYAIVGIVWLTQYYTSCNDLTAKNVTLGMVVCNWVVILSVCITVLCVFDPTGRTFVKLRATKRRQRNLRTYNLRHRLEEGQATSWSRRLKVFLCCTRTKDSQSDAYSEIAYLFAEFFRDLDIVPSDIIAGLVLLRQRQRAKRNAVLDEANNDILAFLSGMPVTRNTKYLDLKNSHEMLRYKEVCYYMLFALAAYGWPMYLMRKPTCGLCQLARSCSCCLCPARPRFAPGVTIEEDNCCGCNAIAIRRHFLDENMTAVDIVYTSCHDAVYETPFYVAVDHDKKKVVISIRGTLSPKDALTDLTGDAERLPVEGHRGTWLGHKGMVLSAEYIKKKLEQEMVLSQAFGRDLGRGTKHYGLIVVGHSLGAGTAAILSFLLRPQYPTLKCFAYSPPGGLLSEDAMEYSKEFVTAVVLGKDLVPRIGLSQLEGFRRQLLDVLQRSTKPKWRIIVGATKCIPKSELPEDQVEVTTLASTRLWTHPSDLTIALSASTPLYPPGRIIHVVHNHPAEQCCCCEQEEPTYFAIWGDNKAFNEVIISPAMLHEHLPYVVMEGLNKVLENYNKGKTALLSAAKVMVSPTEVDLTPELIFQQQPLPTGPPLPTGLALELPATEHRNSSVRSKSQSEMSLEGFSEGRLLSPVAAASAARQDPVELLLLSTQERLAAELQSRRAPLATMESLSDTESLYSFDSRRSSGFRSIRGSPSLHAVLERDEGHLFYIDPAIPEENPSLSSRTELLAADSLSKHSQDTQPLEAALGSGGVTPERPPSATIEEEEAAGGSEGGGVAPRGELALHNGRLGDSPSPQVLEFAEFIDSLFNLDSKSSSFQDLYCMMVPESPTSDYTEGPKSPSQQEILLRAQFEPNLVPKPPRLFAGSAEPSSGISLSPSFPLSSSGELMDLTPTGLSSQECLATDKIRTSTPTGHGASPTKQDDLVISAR
Method: (§3) Mice were administered DAGL test compounds and the activity and selectivity of compounds 14 and 17 in vivo was assessed.
(§4) Compound 14, 17 or vehicle was administered intraperitoneally to male C57BL/6 mice across a dose range of 3-50 mg/kg. After 4 hr, the mice were sacrificed and brain tissue analyzed by ABPP, generally as described in Example 16, with compound probe 58, HT-01 probe, and FP-Rh probe.

ABHD6 = ABHD6 (Mus musculus (Mouse), UniProt Q8R2Y0); test: in vivo inhibition, brain tissue analyzed by ABPP; conditions: mice, intraperitoneal 3-50 mg/kg, 4 hr
ABHD6, sequence (Q8R2Y0 whole entry): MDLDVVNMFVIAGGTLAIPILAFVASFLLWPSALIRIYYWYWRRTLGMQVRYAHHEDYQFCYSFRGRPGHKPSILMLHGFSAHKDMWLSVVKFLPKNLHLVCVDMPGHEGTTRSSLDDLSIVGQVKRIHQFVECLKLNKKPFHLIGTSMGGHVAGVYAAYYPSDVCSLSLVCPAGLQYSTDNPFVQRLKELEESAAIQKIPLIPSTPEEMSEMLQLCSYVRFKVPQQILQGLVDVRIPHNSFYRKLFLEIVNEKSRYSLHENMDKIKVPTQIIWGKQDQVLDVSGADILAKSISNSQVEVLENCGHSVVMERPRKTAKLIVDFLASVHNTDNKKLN
Method: as §3, §4

DAGLβ = DAGLβ (Mus musculus (Mouse), UniProt Q91WC9); test: in vivo inhibition, brain tissue analyzed by ABPP; conditions: mice, intraperitoneal 3-50 mg/kg, 4 hr
DAGLβ, sequence (Q91WC9 whole entry): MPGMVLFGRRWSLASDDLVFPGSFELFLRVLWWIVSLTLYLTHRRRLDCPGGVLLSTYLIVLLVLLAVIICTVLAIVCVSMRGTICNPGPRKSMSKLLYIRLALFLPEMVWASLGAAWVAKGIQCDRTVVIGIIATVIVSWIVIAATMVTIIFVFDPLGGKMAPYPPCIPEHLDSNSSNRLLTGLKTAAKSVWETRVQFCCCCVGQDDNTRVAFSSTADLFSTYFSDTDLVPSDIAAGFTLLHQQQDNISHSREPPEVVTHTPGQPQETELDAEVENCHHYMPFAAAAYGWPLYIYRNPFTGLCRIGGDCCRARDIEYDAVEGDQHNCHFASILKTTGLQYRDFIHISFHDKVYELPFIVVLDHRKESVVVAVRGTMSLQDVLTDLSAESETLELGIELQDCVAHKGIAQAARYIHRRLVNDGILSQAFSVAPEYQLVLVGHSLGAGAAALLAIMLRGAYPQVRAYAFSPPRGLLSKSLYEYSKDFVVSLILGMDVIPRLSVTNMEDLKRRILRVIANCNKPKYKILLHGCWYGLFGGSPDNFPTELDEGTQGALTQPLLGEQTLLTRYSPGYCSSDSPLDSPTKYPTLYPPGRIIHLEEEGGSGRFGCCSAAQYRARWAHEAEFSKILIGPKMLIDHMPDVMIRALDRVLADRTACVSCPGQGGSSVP
Method: as §3, §4

DAGLs = test: time-course of DAGL inhibition and recovery in mice, competitive ABPP with compound 58 probe; format: in vivo, mouse; conditions: 50 mg/kg
Method: Inhibition of DAGL in mice with DAGL compounds 14 and 17 was investigated as a function of time as determined by competitive ABPP using the compound 58 probe (1 μM, 30 min).

recombinant human DAGLα = recombinant human DAGLα (Homo sapiens (Human), UniProt Q9Y4D2); test: SAG substrate assay (in vitro inhibition of 2-AG biosynthesis), membrane lysates from HEK293T cells; format: biochemical; conditions: n=4, read-out: IC50, DAGLα conversion of SAG to 2-AG
recombinant human DAGLα, sequence (Q9Y4D2 whole entry): as the sequence (Q9Y4D2 whole entry) above
Method: (§5) DAGL modulators were tested for in vitro inhibition of 2-AG biosynthesis using a 1-stearoyl-2-arachidonoyl-sn-glycerol (SAG) substrate assay in DAGL-transfected HEK293 cells.
(§6) The SAG substrate assay, as described in Journal of lipid research 56(4):927-935, was performed using the following assay conditions: 0.2 U/mL glycerol kinase (GK), glycerol-3-phosphate oxidase (GPO) and horseradish peroxidase (HRP), 0.125 mM ATP, 10 μM Amplifu™Red, 5% DMSO in a total volume of 200 μL. The assay additionally contained SAG, a DAGL modulator, and membrane lysates from HEK293T cells expressing recombinant human DAGLα or DAGLβ.
(§7) Membranes were prepared from HEK293T cells transiently transfected with DAGLα or DAGLβ plasmids encoding for full length DAGLα or DAGLβ, respectively (Angewandte Chemie 52(46):12081-12085; Journal of Medicinal Chemistry 57(15):6610-6622). Briefly, one day prior to transfection, 10^7 cells were seeded in a 15 cm petri dish. The seeded cells were transfected by the addition of a 3:1 mixture of polyethyleneimine (60 μg) and plasmid DNA (20 μg) in 2 mL serum free medium. The medium was refreshed after 24 hr, and after 72 hr the cells were harvested by suspending them in 20 mL medium. The suspension was centrifuged for 10 min at 1000 rpm, and the supernatant was removed. The cell pellet was stored at −80° C. until use. Cell pellets were thawed on ice and suspended in lysis buffer A (20 mM HEPES, 2 mM DTT, 0.25 M sucrose, 1 mM MgCl2, lx protease inhibitor cocktail (Roche cOmplete EDTA free), 25 U/μL Benzonase). The suspension was homogenized by polytrone (3×7 sec) and incubated for 30 min on ice. The suspension was subjected to ultracentrifugation (100,000×g, 30 min, 4° C., Beckman Coulter, Type Ti70 rotor) to yield the cytosolic fraction in the supernatant and the membrane fraction as a pellet. The pellet was resuspended in lysis buffer B (20 mM HEPES, 2 mM DTT, lx protease inhibitor cocktail (Roche cOmplete EDTA free)) and the protein concentration determined with Quick Start Bradford assay (Biorad). The protein fractions were diluted to a total protein concentration of 1 mg/mL and stored in small aliquots at −80° C. until use.

recombinant human DAGLβ = recombinant human DAGLβ (Homo sapiens (Human), UniProt Q8NCG7); test: as above; format: biochemical
recombinant human DAGLβ, sequence (Q8NCG7 whole entry): as the sequence (Q8NCG7 whole entry) above
Method: as §5, §6, §7

cannabinoid CB1 (CB1R) receptor, sequence (P21554 whole entry): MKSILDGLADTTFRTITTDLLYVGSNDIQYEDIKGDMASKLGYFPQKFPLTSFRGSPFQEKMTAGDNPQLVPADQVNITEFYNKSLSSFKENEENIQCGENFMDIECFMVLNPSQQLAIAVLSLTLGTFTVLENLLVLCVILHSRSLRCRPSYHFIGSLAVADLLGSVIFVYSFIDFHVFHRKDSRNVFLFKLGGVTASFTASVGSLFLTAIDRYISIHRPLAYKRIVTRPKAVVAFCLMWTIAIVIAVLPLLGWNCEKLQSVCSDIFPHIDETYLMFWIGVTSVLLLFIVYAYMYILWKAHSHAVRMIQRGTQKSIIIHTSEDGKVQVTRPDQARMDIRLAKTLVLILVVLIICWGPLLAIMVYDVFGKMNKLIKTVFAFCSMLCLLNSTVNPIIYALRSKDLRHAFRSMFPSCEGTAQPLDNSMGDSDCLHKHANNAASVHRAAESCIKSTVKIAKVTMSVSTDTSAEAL

SMILES	IC50 [1] [nM]	IC50 [2] [nM]	IC50 (DAGLα (hDAGLα-FLAG)) [nM]	IC50 (DAGLβ (hDAGLβ-FLAG)) [nM]	dose with full inhibition of DAGLα (DAGLα) [mg/kg]	ED50 (DAGLα) [mg/kg]	inhibition of ABHD6 in vivo (ABHD6)	inhibition of DAGLβ in vivo (DAGLβ)	duration of sustained inhibition of DAGLs (DAGLs)	DAGL activity at 24-hr post dosing (DAGLs)	IC50 (recombinant human DAGLα) [nM]	IC50 (recombinant human DAGLβ) [nM]	IC50 ([1]; radioligand binding assay, read-out: IC50, CB1R binding) [nM]	IC50 ([2]; radioligand binding assay, read-out: IC50, CB2R binding) [nM]
C#CCO[C@@H]1CC[C@H](Cc2ccccc2)N(C(=O)n2ncc(C(O)(c3ccc(F)cc3)c3ccc(F)cc3)n2)C1 [Compound 14, ((2R,5R)-2-Benzyl-5-(prop-2-ynyloxy)piperidin-1-yl)(4-(bis(4-fluorophenyl)(hydroxy)methyl)-2H-1,2,3-triazol-2-yl)methanone]	> 1000	> 1000	≤ 400	≤ 400	30 to 50	5 to 10	inhibited	inhibited	up to 8 hr	partial recovery	6	3 to 8		
CC(C)(C)OC(=O)N1CCN(C(=O)n2cc(-c3ccc(OC(F)(F)F)cc3)nn2)C(Cc2ccccc2)C1 (stereo not drawn) [Compound 17, tert-Butyl 3-benzyl-4-(4-(4-(trifluoromethoxy)phenyl)-1H-1,2,3-triazole-1-carbonyl)piperazine-1-carboxylate]			≤ 400	≤ 400	30 to 50	5 to 10	inhibited	inhibited	up to 8 hr	partial recovery	6	3 to 8	> 1000	> 1000
